Results reported in patent US9765056B2, “Indole and pyrrole compounds, a process for their preparation and pharmaceutical compositions containing them” (LES LABORATOIRES SERVIER, priority 2013, dated 2017).

What was measured:
[1] = tested on: cleaved form of caspase 3; experiment: Quantification of the cleaved form of caspase 3 in vivo (MSD ELISA) in RS4;11 xenograft tumour lysates; parameters: species or system mice (SCID strain); conditions: oral route
Description: Quantification of the Cleaved Form of Caspase 3 In Vivo
The ability of the compounds of the invention to activate caspase 3 is evaluated in a xenograft model of RS4;11 leukaemia cells.
1×10^7 RS4;11 cells are grafted subcutaneously into immunosuppressed mice (SCID strain). 25 to 30 days after the graft, the animals are treated orally with the various compounds. After treatment, the tumour masses are recovered (after a time period T) and lysed, and the cleaved (activated) form of caspase 3 is quantified in the tumour lysates.
This quantification is carried out using the “Meso Scale Discovery (MSD) ELISA platform” test, which specifically assays the cleaved form of caspase 3. It is expressed in the form of an activation factor corresponding to the ratio between the quantity of cleaved caspase 3 in the treated mice divided by the quantity of cleaved caspase 3 in the control mice.

Bcl-2 protein = Bcl-2 protein (histag-Bcl-2, UniProtKB P10415) (Homo sapiens (Human), UniProt P10415); experiment: Inhibition of Bcl-2 by the fluorescence polarisation technique; type: binding; conditions: fluorescence polarisation test; method A, or method B where underlined (underlining not visible); read-out: IC50 (nM) Bcl-2 FP
Chain of Bcl-2 protein (P10415 whole entry): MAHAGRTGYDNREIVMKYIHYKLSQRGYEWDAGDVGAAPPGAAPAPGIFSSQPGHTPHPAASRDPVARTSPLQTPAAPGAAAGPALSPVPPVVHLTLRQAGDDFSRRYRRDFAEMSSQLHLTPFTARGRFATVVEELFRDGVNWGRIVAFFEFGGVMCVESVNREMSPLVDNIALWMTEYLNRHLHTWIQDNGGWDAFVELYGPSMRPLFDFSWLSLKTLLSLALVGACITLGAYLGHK
From the text: Inhibition of Bcl-2 by the fluorescence polarisation technique

[2] = tested on: RS4;11 leukaemia tumour line; experiment: In vitro cytotoxicity, Microculture Tetrazolium Assay (MTT); type: cell-based; conditions: Homo sapiens; RS4;11 cells, 48 hours exposure
Description: The cytotoxicity studies were carried out on the RS4;11 leukaemia tumour line.
The cells are distributed onto microplates and exposed to the test compounds for 48 hours. The cell viability is then quantified by a colorimetric assay, the Microculture Tetrazolium Assay (Cancer Res., 1987, 47, 939-942).

[3] = 25 mg/kg, tumour removed after 2 h

Row | IC50 (Bcl-2 protein) [nM] | Structure (SMILES) | Activation factor ± SEM (versus control), cleaved caspase 3 MSD test ([1]; 125 mg/kg, tumour removed after 2 h) | IC50 [2] [nM] | Activation factor ± SEM (versus control), cleaved caspase 3 MSD test [1, 3] | Activation factor ± SEM (versus control), cleaved caspase 3 MSD test ([1]; 100 mg/kg, tumour removed after 16 h)
1 | 3.1 | Cc1c(C(=O)N(c2ccc(O)cc2)c2cnc3c(c2)CCN3C)cn(-c2cc(Cl)ccc2C(=O)N2Cc3ccccc3C[C@H]2CN2CCOCC2)c1C.Cl [Example 210, 1-(5-Chloro-2-{[(3S)-3-(morpholin-4-ylmethyl)-3,4-dihydroisoquinolin-2(1H)-yl]carbonyl}phenyl)-N-(4-hydroxyphenyl)-4,5-dimethyl-N-(1-methyl-2,3-dihydro-1H-pyrrolo[2,3-b]pyridin-5-yl)-1H-pyrrole-3-carboxamide hydrochloride] | 36.3 ± 13.3 | 64.7 | – | –
2 | 3.7 | Cc1c(C(=O)N(c2ccc(O)cc2)c2cc(C#N)n(C)c2C)cn(-c2cc(Cl)ccc2C(=O)N2Cc3ccccc3C[C@H]2CN2CCOCC2)c1C.Cl [Example 211, 1-(5-Chloro-2-{[(3S)-3-(morpholin-4-ylmethyl)-3,4-dihydroisoquinolin-2(1H)-yl]carbonyl}phenyl)-N-(5-cyano-1,2-dimethyl-1H-pyrrol-3-yl)-N-(4-hydroxyphenyl)-4,5-dimethyl-1H-pyrrole-3-carboxamide hydrochloride] | – | 46.9 | 94.7 ± 9.8 | –
3 | 14.1 | Cl.O=C(c1cn(-c2cc3c(cc2C(=O)N2Cc4ccccc4C[C@H]2CN2CCOCC2)OCO3)c2ccccc12)N(c1ccccc1)c1ccc(O)cc1 [Example 184, N-(4-Hydroxyphenyl)-1-{6-[(3S)-3-(morpholin-4-ylmethyl)-1,2,3,4-tetrahydroisoquinoline-2-carbonyl]-2H-1,3-benzodioxol-5-yl}-N-phenyl-1H-indole-3-carboxamide hydrochloride] | – | 154 | – | 15.1
4 | 20.3 | Cl.Cn1ccc2cc(N(C(=O)c3cn(-c4cc5c(cc4C(=O)N4Cc6ccccc6C[C@H]4CN4CCOCC4)OCO5)c4c3CCCC4)c3ccc(O)cc3)cnc21 [Example 207, N-(4-Hydroxyphenyl)-N-(1-methyl-1H-pyrrolo[2,3-b]pyridin-5-yl)-1-(6-{[(3S)-3-(morpholin-4-ylmethyl)-3,4-dihydroisoquinolin-2(1H)-yl]carbonyl}-1,3-benzodioxol-5-yl)-4,5,6,7-tetrahydro-1H-indole-3-carboxamide hydrochloride] | – | 22.2 | 14.6 ± 4.4 | –
5 | 71.5 | CN(C)C[C@@H]1Cc2ccccc2CN1C(=O)c1ccccc1-n1cc(C(=O)N(c2ccccc2)c2ccc(O)cc2)c2ccccc21 [Example 143, 1-{2-[(3S)-3-[(Dimethylamino)methyl]-1,2,3,4-tetrahydroisoquinoline-2-carbonyl]phenyl}-N-(4-hydroxyphenyl)-N-phenyl-1H-indole-3-carboxamide] | – | 533 | – | –
6 | 25 | CNc1ccc(-n2nc(C(=O)N(c3ccccc3)c3ccccc3)c3ccccc32)c(C(=O)N2Cc3ccccc3C[C@H]2CN)c1 [Example 140, 1-{2-[(3S)-3-(Aminomethyl)-1,2,3,4-tetrahydroisoquinoline-2-carbonyl]-4-(methylamino)phenyl}-N,N-diphenyl-1H-indazole-3-carboxamide] | – | 1840 | – | –
